The term IC50 denotes the concentration that inhibits the measured activity by half. A high value points to weaker potency. The term inhibition denotes the percentage by which the read-out fell short of the control. Lower therefore signals a weak effect.

For the first assay, the target named is Thromboxane-A synthase (Oryctolagus cuniculus). The assay is described as follows: Inhibitory activity against rabbit thromboxane synthetase.
Details: not given
In the case of `O=C(CCCCCCCn1ccnc1)c1ccccc1`, the IC50 was 134 nM.
`O=C(O)CCCCCCc1c[nH]cn1` had an IC50 of 20000 nM.
Still for that read-out and setting: the same measure for `O=C(O)/C=C/c1cccc(Cn2ccnc2)c1`: 32 nM; for `NC(CCCCCCn1ccnc1)C(=O)O` (stereo not given): above 1000 nM; for `O=C(O)C(O)CCCCCCn1ccnc1` (stereo not given): 140 nM.
Compound `Cc1nccn1CCCCCCC(=O)O` returned an IC50 above 1000 nM.
In turn, `O=C(O)c1ccc(CCCn2ccnc2)cc1` registered an IC50 of 5 nM.
`O=C(O)Cc1ccc(CCn2ccnc2)cc1` showed an IC50 of 1500 nM.
The same measure, in the same setting: then `O=C(O)C(CCCCCCn1ccnc1)C(=O)O`, with 550 nM; and `O=C(O)c1ccc(/C=C/Cn2ccnc2)cc1`, with 44 nM; and `O=C(O)CCCCCCc1ncc[nH]1`, with 20000 nM.
On the same count and under the same terms, the same measure for `c1cn(CCCCCCCn2ccnc2)cn1`: 2000 nM; for `O=C(O)C(CO)CCCCCCn1ccnc1` (stereo not given): 250 nM.
Still for that read-out and setting: then `O=C(O)/C=C/c1ccc(OCCn2ccnc2)cc1`, with 250 nM; and `CC(C)(CCCC#CCn1ccnc1)C(=O)O`, with 9 nM; and `C[S+]([O-])CCCCCCCCn1ccnc1` (stereo not given), with 3300 nM.
Regarding `CC(C)(Oc1ccc(Cn2ccnc2)cc1)C(=O)O`, the IC50 was determined as 25 nM.
In the case of `CC(=O)CCCCCCCn1ccnc1`, the IC50 is above 1000 nM.
`O=C(O)CCCc1ccc(Cn2ccnc2)cc1` gave an IC50 of 1200 nM.
In turn, `O=C(O)COc1ccccc1Cn1ccnc1` returned an IC50 of 210 nM.
Compound `O=C(O)CCCc1ccc(-n2ccnc2)cc1` had an IC50 of 120 nM.
As to `CC(C)(CC/C=C/C=C/C(=O)O)n1ccnc1`, the IC50 is 450 nM.
On the same count and under the same terms, the same measure for `O=C(O)COc1ccc(Cn2ccnc2)cc1`: 40 nM; for `CC(Oc1ccc(Cn2ccnc2)cc1)C(=O)O` (stereo not given): 38 nM.

For the next assay, the system named is Thromboxane-A synthase (Oryctolagus cuniculus). Put plainly: Compound was tested for its inhibitory activity against Thromboxane synthetase at 25 nM.
Details: not given
On to `c1cn(CCCCCCCn2ccnc2)cn1`, for which the inhibition is 13.4%.
The same measure, in the same setting: then `C[S+]([O-])CCCCCCCCn1ccnc1` (stereo not given), with 9%.

For the next assay the test system is unchanged. The assay is described as follows: Compound was tested for its inhibitory activity against Thromboxane synthetase. The following applies: concentration not given here.
`CSCCCCCCCCn1ccnc1` had an inhibition of 11.4%.
The same measure, in the same setting: then `N#CCCCCCCCn1ccnc1`, with 0%; and `O=S(=O)(O)CCCCCCn1ccnc1`, with 8.8%; and `SCCCCCCCCn1ccnc1`, with 17.5%.

Source of the values: ChEMBL document CHEMBL1121723 (J Med Chem, 1981).
